Measurements reported in patent US9125913B2, “Bcl-2-selective apoptosis-inducing agents for the treatment of cancer and immune diseases” (AbbVie Inc., priority 2008, dated 2015).

Tests used:
GST-Bcl-2 = experiment: TR-FRET binding assay, Bcl-2; details: TR-FRET Ki values
Outline: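 Compounds serially diluted in DMSO from 50 μM (2× starting concentration, 10% DMSO), mixed with GST-tagged protein, F-Bak peptide probe and Tb-labeled antibody, incubated 3 h at room temperature.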

FL5.12/Bcl-2 cells = experiment: FL5.12/Bcl-2 cell viability assay; assay type: cell-based, murine; details: ratio of canine platelet EC50 to FL5.12/Bcl-2 EC50
Outline: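 Murine IL-3-dependent FL5.12 cells stably overexpressing Bcl-2 were deprived of IL-3 (WEHI-3B conditioned medium) for 48 h, then exposed to various compound concentrations for 24 h at 37 °C. Viability read by CellTiter-Glo luminescence.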

| SMILES | Binding selectivity ratio (Bcl-XL Ki/Bcl-2 Ki) (GST-Bcl-2) | Selectivity Ratio (Platelet EC50/FL5.12/Bcl-2 EC50) (FL5.12/Bcl-2 cells) |
| --- | --- | --- |
| CN(C)CCOc1cccc(-c2ccc(Cl)cc2)c1CN1CCN(c2ccc(C(=O)NS(=O)(=O)c3ccc(NCC4CCOCC4)c([N+](=O)[O-])c3)c(Oc3ccccc3)c2)CC1 [Example 122, 4-[4-({4′-chloro-3-[2-(dimethylamino)ethoxy]-1,1′-biphenyl-2-yl}methyl)piperazin-1-yl]-N-({3-nitro-4-[(tetrahydro-2H-pyran-4-ylmethyl)amino]phenyl}sulfonyl)-2-phenoxybenzamide] | 209.4 | >1259 |
| CN(C)CCOc1cccc(-c2ccc(Cl)cc2)c1CN1CCN(c2ccc(C(=O)NS(=O)(=O)c3ccc(NCCCN4CCCC4)c([N+](=O)[O-])c3)c(Oc3ccccc3)c2)CC1 [Example 123, 4-[4-({4′-chloro-3-[2-(dimethylamino)ethoxy]-1,1′-biphenyl-2-yl}methyl)piperazin-1-yl]-N-({3-nitro-4-[(3-pyrrolidin-1-ylpropyl)amino]phenyl}sulfonyl)-2-phenoxybenzamide] | 91.5 | 32 |
| CN(C)CCOc1ccc(-c2ccc(Cl)cc2)c(CN2CCN(c3ccc(C(=O)NS(=O)(=O)c4ccc(NCC5CCOCC5)c([N+](=O)[O-])c4)c(Oc4cccc5[nH]ccc45)c3)CC2)c1 [Example 125, 4-[4-({4′-chloro-4-[2-(dimethylamino)ethoxy]-1,1′-biphenyl-2-yl}methyl)piperazin-1-yl]-2-(1H-indol-4-yloxy)-N-({3-nitro-4-[(tetrahydro-2H-pyran-4-ylmethyl)amino]phenyl}sulfonyl)benzamide] | 3879 | 4719 |
| CN(C)CCOc1ccc(-c2ccc(Cl)cc2)c(CN2CCN(c3ccc(C(=O)NS(=O)(=O)c4ccc(NCC5CCOCC5)c([N+](=O)[O-])c4)c(Oc4ccc5[nH]ccc5c4)c3)CC2)c1 [Example 126, 4-[4-({4′-chloro-4-[2-(dimethylamino)ethoxy]-1,1′-biphenyl-2-yl}methyl)piperazin-1-yl]-2-(1H-indol-5-yloxy)-N-({3-nitro-4-[(tetrahydro-2H-pyran-4-ylmethyl)amino]phenyl}sulfonyl)benzamide] | 13575 | >1618 |
| CN(C)CCOc1cccc(-c2ccc(Cl)cc2)c1CN1CCN(c2ccc(C(=O)NS(=O)(=O)c3ccc(NCC4CCOCC4)c([N+](=O)[O-])c3)c(Oc3cccc4[nH]ccc34)c2)CC1 [Example 128, 4-[4-({4′-chloro-3-[2-(dimethylamino)ethoxy]-1,1′-biphenyl-2-yl}methyl)piperazin-1-yl]-2-(1H-indol-4-yloxy)-N-({3-nitro-4-[(tetrahydro-2H-pyran-4-ylmethyl)amino]phenyl}sulfonyl)benzamide] | 7117.6 | >2000 |
| O=C(NS(=O)(=O)c1ccc(NCC2CCOCC2)c([N+](=O)[O-])c1)c1ccc(N2CCN(Cc3cc(OCCN4CCOCC4)ccc3-c3ccc(Cl)cc3)CC2)cc1Oc1cccc2[nH]ccc12 [Example 130, 4-(4-{[4′-chloro-4-(2-morpholin-4-ylethoxy)-1,1′-biphenyl-2-yl]methyl}piperazin-1-yl)-2-(1H-indol-4-yloxy)-N-({3-nitro-4-[(tetrahydro-2H-pyran-4-ylmethyl)amino]phenyl}sulfonyl)benzamide] | >4714.3 | >254 |
| O=C(NS(=O)(=O)c1ccc(NCC2CCOCC2)c([N+](=O)[O-])c1)c1ccc(N2CCN(Cc3c(OCCN4CCOCC4)cccc3-c3ccc(Cl)cc3)CC2)cc1Oc1cccc2[nH]ccc12 [Example 131, 4-(4-{[4′-chloro-3-(2-morpholin-4-ylethoxy)-1,1′-biphenyl-2-yl]methyl}piperazin-1-yl)-2-(1H-indol-4-yloxy)-N-({3-nitro-4-[(tetrahydro-2H-pyran-4-ylmethyl)amino]phenyl}sulfonyl)benzamide] | 2292.2 | >1597 |
| O=C(NS(=O)(=O)c1ccc(NCC2CCOCC2)c([N+](=O)[O-])c1)c1ccc(N2CCN(Cc3c(OCCN4CCOCC4)cccc3-c3ccc(Cl)cc3)CC2)cc1Oc1ccc2[nH]ccc2c1 [Example 132, 4-(4-{[4′-chloro-3-(2-morpholin-4-ylethoxy)-1,1′-biphenyl-2-yl]methyl}piperazin-1-yl)-2-(1H-indol-5-yloxy)-N-({3-nitro-4-[(tetrahydro-2H-pyran-4-ylmethyl)amino]phenyl}sulfonyl)benzamide] | 570.1 | >1196 |
| CN(C)CCOc1ccc(-c2ccc(Cl)cc2)c(CN2CCN(c3ccc(C(=O)NS(=O)(=O)c4ccc(NC5CCN(C)CC5)c([N+](=O)[O-])c4)c(Oc4ccccc4)c3)CC2)c1 [Example 133, 4-[4-({4′-chloro-4-[2-(dimethylamino)ethoxy]-1,1′-biphenyl-2-yl}methyl)piperazin-1-yl]-N-({4-[(1-methylpiperidin-4-yl)amino]-3-nitrophenyl}sulfonyl)-2-phenoxybenzamide] | 31.2 | 5 |
| CN(C)CCOc1cccc(-c2ccc(Cl)cc2)c1CN1CCN(c2ccc(C(=O)NS(=O)(=O)c3ccc(NCCCN4CCCC4)c([N+](=O)[O-])c3)c(Oc3ccc4[nH]ccc4c3)c2)CC1 [Example 134, 4-[4-({4′-chloro-3-[2-(dimethylamino)ethoxy]-1,1′-biphenyl-2-yl}methyl)piperazin-1-yl]-2-(1H-indol-5-yloxy)-N-({3-nitro-4-[(3-pyrrolidin-1-ylpropyl)amino]phenyl}sulfonyl)benzamide] | 347.1 | 98 |
| CN(C)CCOc1ccc(-c2ccc(Cl)cc2)c(CN2CCN(c3ccc(C(=O)NS(=O)(=O)c4ccc(NCCCN5CCCC5)c([N+](=O)[O-])c4)c(Oc4ccc5[nH]ccc5c4)c3)CC2)c1 [Example 135, 4-[4-({4′-chloro-4-[2-(dimethylamino)ethoxy]-1,1′-biphenyl-2-yl}methyl)piperazin-1-yl]-2-(1H-indol-5-yloxy)-N-({3-nitro-4-[(3-pyrrolidin-1-ylpropyl)amino]phenyl}sulfonyl)benzamide] | 779.9 | 108 |
| O=C(NS(=O)(=O)c1ccc(NCCCN2CCCC2)c([N+](=O)[O-])c1)c1ccc(N2CCN(Cc3cc(OCCN4CCOCC4)ccc3-c3ccc(Cl)cc3)CC2)cc1Oc1ccc2[nH]ccc2c1 [Example 136, 4-(4-{[4′-chloro-4-(2-morpholin-4-ylethoxy)-1,1′-biphenyl-2-yl]methyl}piperazin-1-yl)-2-(1H-indol-5-yloxy)-N-({3-nitro-4-[(3-pyrrolidin-1-ylpropyl)amino]phenyl}sulfonyl)benzamide] | 238.9 | >263 |
| CN(C)CCOc1ccc(-c2ccc(Cl)cc2)c(CN2CCN(c3ccc(C(=O)NS(=O)(=O)c4ccc(NC5CCN(CC(F)(F)F)CC5)c([N+](=O)[O-])c4)c(Oc4ccccc4)c3)CC2)c1 [Example 137, 4-[4-({4′-chloro-4-[2-(dimethylamino)ethoxy]-1,1′-biphenyl-2-yl}methyl)piperazin-1-yl]-N-[(3-nitro-4-{[1-(2,2,2-trifluoroethyl)piperidin-4-yl]amino}phenyl)sulfonyl]-2-phenoxybenzamide] | 52.4 | >178 |
| O=C(NS(=O)(=O)c1ccc(NCC2CCOCC2)c([N+](=O)[O-])c1)c1ccc(N2CCN(Cc3cc(OCCN4CCCC4)ccc3-c3ccc(Cl)cc3)CC2)cc1Oc1ccccc1 [Example 138, 4-(4-{[4′-chloro-4-(2-pyrrolidin-1-ylethoxy)-1,1′-biphenyl-2-yl]methyl}piperazin-1-yl)-N-({3-nitro-4-[(tetrahydro-2H-pyran-4-ylmethyl)amino]phenyl}sulfonyl)-2-phenoxybenzamide] | 574.9 | 616 |
| CC(C)N(CCOc1ccc(-c2ccc(Cl)cc2)c(CN2CCN(c3ccc(C(=O)NS(=O)(=O)c4ccc(NCC5CCOCC5)c([N+](=O)[O-])c4)c(Oc4ccccc4)c3)CC2)c1)C(C)C [Example 139, 4-[4-({4′-chloro-4-[2-(diisopropylamino)ethoxy]-1,1′-biphenyl-2-yl}methyl)piperazin-1-yl]-N-({3-nitro-4-[(tetrahydro-2H-pyran-4-ylmethyl)amino]phenyl}sulfonyl)-2-phenoxybenzamide] | 103.1 | 841 |
| O=C(NS(=O)(=O)c1ccc(NCC2CCOCC2)c([N+](=O)[O-])c1)c1ccc(N2CCN(Cc3ccccc3-c3ccc(Cl)cc3)CC2)cc1Oc1ccc2c(c1)CCN2 [Example 140, 4-{4-[(4′-chloro-1,1′-biphenyl-2-yl)methyl]piperazin-1-yl}-2-(2,3-dihydro-1H-indol-5-yloxy)-N-({3-nitro-4-[(tetrahydro-2H-pyran-4-ylmethyl)amino]phenyl}sulfonyl)benzamide] | >139.7 | >23 |
| O=C(NS(=O)(=O)c1ccc(NCCCN2CCCC2)c([N+](=O)[O-])c1)c1ccc(N2CCN(CC3=C(c4ccc(Cl)cc4)CCCCC3)CC2)cc1Oc1cccc2[nH]ccc12 [Example 141, 4-(4-{[2-(4-chlorophenyl)cyclohept-1-en-1-yl]methyl}piperazin-1-yl)-2-(1H-indol-4-yloxy)-N-({3-nitro-4-[(3-pyrrolidin-1-ylpropyl)amino]phenyl}sulfonyl)benzamide] | 42.6 | >661 |
